Measured values: patent US11519834B2, “In vitro intestinal drug disposition device” (Enphasys AB, priority 2017, dated 2022)
Where two headings read alike, the source gives them in different places.

How the values were obtained:
[1] = compared with micronized (ball-milled) danazol, FIG. 7
Caco-2 cells [2] = assay: Permeation across Caco-2 monolayers in 12-well Transwell plate; assay type: in vitro ADME, human; settings: Caco-2 monolayer, 1.12 cm^2, 10 μM lucifer yellow
Experimental: (§1) The buffer was spiked with 10 μM lucifer yellow, which was used as a paracellular marker to check monolayer integrity. HBSS containing 4% bovine albumin serum was used in the receiver compartment to ensure sink conditions.
Caco-2 cells were grown on inserts in 12-well Transwell plates (surface area 1.12 cm^2). Transwell plates are typically used for in vitro absorption studies. The experiment was performed at 37° C. at 500 rpm with 400 μl of buffer at the donor and 1.2 ml of buffer at the receiver side.

Caco-2 cells [3] = system: Caco-2 cells
Experimental: as §1
Caco-2 cells were grown on Transwell inserts (diameter […]) and mounted in the device resulting in a surface area of 28.27 cm^2. The receiver compartment contained 180 ml and the donor 60 ml. A magnetic stirrer was used to mix the buffer in the receiver compartment and a stirrer propeller to mix the buffer in the donor compartment.

Caco-2 cells [4] = assay: Permeation across Caco-2 monolayers in μFlux; assay type: in vitro ADME, human; settings: Caco-2 monolayer, 0.78 cm^2, 10 μM lucifer yellow
Experimental: HBSS containing 4% bovine albumin serum was used in the receiver compartment to ensure sink conditions. […] Donor and receiver compartments were kept at 37° C. and typically contained 15 ml of buffer. Caco-2 cells were grown in Transwell plates and placed between the compartments resulting in a surface of 0.78 cm^2. Magnetic stirring was used for mixing in both the donor and receiver compartment. The μDISS profiler allowed in situ concentration monitoring with fiber optic probes.

| absorption [1] | Lucifer yellow Papp (Caco-2 cells [2]) [×10⁻⁶ cm/s] | Lucifer yellow Papp (Caco-2 cells [3]) [×10⁻⁶ cm/s] | Lucifer yellow Papp (Caco-2 cells [4]) [×10⁻⁶ cm/s] | Molecule |
| --- | --- | --- | --- | --- |
| much lower absorption |  |  |  | C#C[C@]1(O)CC[C@H]2[C@@H]3CCC4=Cc5oncc5C[C@]4(C)[C@H]3CC[C@@]21C [Unprocessed crystalline danazol, danazol] |
|  | 1 | 2.19 | 39.37 | lucifer yellow |
